# Laboratory results from patent US20070004634A1 (Novo Nordisk A/S, priority 1998, published 2007).
# No end group written: not given here.
# What was measured:
# [1] = target: His-tagged soluble recombinant human IGF-IR (srhIGF-1R-his) (Homo sapiens, UniProt P08069); assay: ALPHAScreen competition, b-hIGF-1 binding to srhIGF-1R-his; conditions: read-out: Affin.; AlphaScreen assay versus IGF-1
# Method: Detection of the receptor ligand interaction was measured in an amplified luminescent proximity homogeneous assay (ALPHAScreen; BioSignal-Packard, Montreal). The assay was performed in 384-well Nunc™white polystyrene microplates (Nalge Nunc International, Naperville, Ill.) with a final volume of 40 μl.
# For the first step of the assay, hIGF-1 (PeproTech, Inc., Rocky Hill, N.J.), b-hIGF-1 (see below), and peptides were incubated for 2 h at room temperature. Each concentration of competitor was assayed in duplicate. Non-specific binding was determined in the presence of 3×10^−5 M hIGF-1. In the second step of the assay, acceptor beads were added and the incubation was continued for 0.5 h. In the final step, donor beads were added and the incubation was continued for an additional 1 h.
# For these experiments, potencies of peptide competition were determined using the AlphaScreen assay format.
# MiaPaCa cells = conditions: MiaPaCa
# IR [2] = assay: IR activity (agonist/antagonist) of MBP-peptide fusions, Table 10; test not named; conditions: MBP-peptide fusion proteins; one symbol per monomer unit
# [3] = target: T1, soluble human insulin receptor-immunoglobulin heavy chain chimera (sIR-Fc) (Homo sapiens, UniProt P06213); assay: TR-FRET competition with biotinylated RP9 (b-RP9) for sIR-Fc; assay type: binding; conditions: Hill slope; target sIR-Fc; label b-RP9; TR-FRET
# T1 construct: replacing the transmembrane domain and the intracellular domain of IR with constant domains from immunoglobulin Fc or λ subunits; made in house; host or cells: human embryonic kidney 293 cells (Bass et al.)
# T1 sequence (P06213 28-758 limits assumed, stated change not applied): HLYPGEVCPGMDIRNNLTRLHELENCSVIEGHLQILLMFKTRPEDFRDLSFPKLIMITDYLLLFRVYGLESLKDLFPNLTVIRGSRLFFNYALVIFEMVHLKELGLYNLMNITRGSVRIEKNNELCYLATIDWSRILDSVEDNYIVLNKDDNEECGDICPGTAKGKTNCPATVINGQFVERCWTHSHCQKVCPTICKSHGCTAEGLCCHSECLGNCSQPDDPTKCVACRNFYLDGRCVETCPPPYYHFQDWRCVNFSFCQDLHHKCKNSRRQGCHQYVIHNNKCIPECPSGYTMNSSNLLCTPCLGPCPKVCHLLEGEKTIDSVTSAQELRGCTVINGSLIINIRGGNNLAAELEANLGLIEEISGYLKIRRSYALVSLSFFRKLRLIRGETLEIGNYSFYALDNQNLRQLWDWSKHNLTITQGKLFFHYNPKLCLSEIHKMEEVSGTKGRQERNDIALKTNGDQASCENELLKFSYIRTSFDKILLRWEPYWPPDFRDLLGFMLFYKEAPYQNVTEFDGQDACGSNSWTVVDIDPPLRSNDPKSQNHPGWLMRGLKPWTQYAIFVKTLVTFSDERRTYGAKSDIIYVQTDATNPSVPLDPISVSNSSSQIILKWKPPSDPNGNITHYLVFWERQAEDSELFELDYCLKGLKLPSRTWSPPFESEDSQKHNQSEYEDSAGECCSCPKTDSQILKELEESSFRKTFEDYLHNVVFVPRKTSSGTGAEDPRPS
# T1 sequence (P06213 763-956 limits assumed, stated change not applied): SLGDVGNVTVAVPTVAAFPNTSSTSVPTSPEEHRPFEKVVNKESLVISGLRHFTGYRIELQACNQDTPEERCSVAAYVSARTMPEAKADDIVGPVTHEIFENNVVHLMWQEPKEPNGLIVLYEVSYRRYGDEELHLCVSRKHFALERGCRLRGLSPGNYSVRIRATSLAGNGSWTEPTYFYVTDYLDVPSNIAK
# IGF-1R [4] = target: T2, IGF-1R (Homo sapiens, UniProt P08069); assay: TR-FRET dissociation of biotinylated-20E2 from rhIGF-1R; assay type: binding; conditions: peptides 100 μM, IGF-1 30 μM
# T2 sequence (P08069 31-736 limits assumed): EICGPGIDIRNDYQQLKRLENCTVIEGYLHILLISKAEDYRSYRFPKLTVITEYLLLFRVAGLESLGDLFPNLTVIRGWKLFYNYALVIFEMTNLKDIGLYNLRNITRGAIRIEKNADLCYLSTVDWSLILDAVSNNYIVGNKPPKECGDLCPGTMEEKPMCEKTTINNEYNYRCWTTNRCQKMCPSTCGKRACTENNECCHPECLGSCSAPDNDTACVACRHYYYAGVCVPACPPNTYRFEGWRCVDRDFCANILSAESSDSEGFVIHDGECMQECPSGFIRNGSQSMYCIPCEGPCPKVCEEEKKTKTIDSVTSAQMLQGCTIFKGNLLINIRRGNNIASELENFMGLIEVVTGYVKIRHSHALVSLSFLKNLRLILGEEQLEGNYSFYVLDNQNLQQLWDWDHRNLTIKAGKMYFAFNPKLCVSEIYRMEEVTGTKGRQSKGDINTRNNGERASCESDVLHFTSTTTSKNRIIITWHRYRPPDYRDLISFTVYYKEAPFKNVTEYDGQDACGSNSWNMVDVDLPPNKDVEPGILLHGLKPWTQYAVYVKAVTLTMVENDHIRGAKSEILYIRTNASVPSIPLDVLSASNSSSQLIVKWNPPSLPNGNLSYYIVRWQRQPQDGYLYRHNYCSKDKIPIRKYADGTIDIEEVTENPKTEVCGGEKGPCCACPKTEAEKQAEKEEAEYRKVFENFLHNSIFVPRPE
# T2 sequence (P08069 741-935 limits assumed): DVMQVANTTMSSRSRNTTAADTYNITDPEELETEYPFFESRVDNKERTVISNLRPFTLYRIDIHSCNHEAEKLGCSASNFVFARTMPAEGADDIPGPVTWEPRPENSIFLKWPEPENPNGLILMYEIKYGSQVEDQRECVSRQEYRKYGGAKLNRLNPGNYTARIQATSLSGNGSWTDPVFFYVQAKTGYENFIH
# Method: Best fit non-linear regression analysis of the data, was used to determine dissociation rate constants. Each data point represents a single observation. […] Reactions were allowed to reach equilibrium for 6 h at RT.
# [5] = target: T1, soluble human insulin receptor-immunoglobulin heavy chain chimera (sIR-Fc); assay: TR-FRET competition with biotinylated S175 (b-S175) for sIR-Fc; assay type: binding; conditions: Hill slope, target sIR-Fc, label b-S175
# Method: The TR-FRET assays were performed in a 384-well white microplate with a final volume of 30 μl.
# For these figures, each data point represents the average of two replicate wells.
# [6] = target: T3, soluble HIR ectodomain (sIR) (Homo sapiens, UniProt P06213); assay: Fluorescence polarization, competition with FITC-RP9 for sIR; assay type: binding; conditions: Hill slope, target sIR, label FITC-RP9
# T3 construct: soluble HIR ectodomain (sIR); Kristensen et al., 1998
# T3 sequence (P06213 28-758 limits assumed): as the sequence (P06213 28-758 limits assumed, stated change not applied) above
# T3 sequence (P06213 763-956 limits assumed): as the sequence (P06213 763-956 limits assumed, stated change not applied) above
# [7] = target: T4, insulin receptor construct transfected into 32D cells (Homo sapiens, UniProt P06213); assay: IR autophosphorylation assay in IR transfected 32D cells (ELISA); assay type: cell-based; conditions: tested as MBP fusion peptides
# T4 construct: expressed in transfected cells; host or cells: 32D cells (clone 969)
# T4 sequence (P06213 28-758 limits assumed): as the sequence (P06213 28-758 limits assumed, stated change not applied) above
# T4 sequence (P06213 763-1382 limits assumed): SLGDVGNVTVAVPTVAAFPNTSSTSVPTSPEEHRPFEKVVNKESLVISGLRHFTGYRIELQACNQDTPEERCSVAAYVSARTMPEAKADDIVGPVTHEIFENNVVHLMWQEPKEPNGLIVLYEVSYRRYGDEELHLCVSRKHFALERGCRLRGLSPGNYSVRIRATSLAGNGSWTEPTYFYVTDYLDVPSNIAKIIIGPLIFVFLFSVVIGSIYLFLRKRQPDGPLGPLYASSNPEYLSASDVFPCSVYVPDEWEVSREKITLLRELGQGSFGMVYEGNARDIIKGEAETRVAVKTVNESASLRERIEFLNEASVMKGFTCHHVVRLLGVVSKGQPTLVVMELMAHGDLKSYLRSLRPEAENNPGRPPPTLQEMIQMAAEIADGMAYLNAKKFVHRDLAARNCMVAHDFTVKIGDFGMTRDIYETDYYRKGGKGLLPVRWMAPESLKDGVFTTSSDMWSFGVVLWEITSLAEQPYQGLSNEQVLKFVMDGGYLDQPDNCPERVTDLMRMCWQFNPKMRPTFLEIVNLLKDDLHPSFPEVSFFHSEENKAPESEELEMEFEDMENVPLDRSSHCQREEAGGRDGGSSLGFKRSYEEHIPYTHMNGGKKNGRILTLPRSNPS
# Method: The IR transfected 32D cells were seeded at […] in 96-well tissue culture plates and incubated overnight at 37° C. […] The culture media was decanted from the cell culture plates, and the diluted samples were added to the cells. The plates were incubated at 37° C. for 30 min. The stimulation medium was decanted from the plates, and cell lysis buffer (50 mM HEPES pH 7.2, 150 mM NaCl, 0.5% Triton X-100, 1 mM AEBSF, 10 KIU/ml aprotinin, 50 μM leupeptin, and 2 mM sodium orthovanadate) was added. The cells were lysed for 30 min.
# In the ELISA portion of the assay, the cell lysates were added to the BSA-blocked anti-IR unit mAb (Upstate Biotechnology, Lake Placid, N.Y.) coated ELISA plates. After a 2 h incubation, the plates were washed 6 times with PBST and biotinylated anti-phosphotyrosine antibody (Upstate Biotechnology) is added. After another 2 h incubation, the plates were again washed 6 times. Streptavidin-Eu was then added, and the plates were incubated for 1 h. After washing the plates again, EG&G Wallac enhancement solution (100 mM acetone-potassium hydrogen pthalate, pH 3.2; 15 mM 2-naphtyltrifluoroacetate; 50 mM tri(n-octyl)-phosphine oxide; 0.1% Triton X-100) was added into each well, and the plates were placed onto a shaker for 20 min at RT.
# IGF-1R [8] = target: T2, IGF-1R; assay: TR-FRET competition with biotinylated-20E2 for rhIGF-1R; conditions: TR-FRET (rhIGF-1R, b-20E2) versus FP (sIR-Fc), summary of Table 22
# Method: (§1) For these experiments, each data point represents the average of two replicate wells.
# The assays were performed using a 384-well white microplate (NUNC) with a final volume of 30 μl.
# [9] = target: T1, soluble human insulin receptor-immunoglobulin heavy chain chimera (sIR-Fc); assay: Fluorescence polarization, competition with FITC-RP9 for sIR-Fc; assay type: binding
# Method: as §1
# The assays were performed in a 384-well black microplate (NUNC) with a final volume of 30 μl.
# [10] = tested on: free fat cells (adipocytes); assay: Adipocyte / free fat cell (FFC) assay, 3H glucose incorporation into lipid; conditions: free fat cell assay class, Table 9
# Method: Incorporation of ^3H into the lipid phase was determined by partitioning of lipid phase into a scintillant mixture, which excludes water-soluble ^3H products.
# IR [11] = target: IR (Homo sapiens, UniProt P06213); assay: IR-Kd; parameters: replacing the transmembrane domain and the intracellular domain of IR with constant domains from immunoglobulin Fc or λ subunits; made in house; host or cells: human embryonic kidney 293 cells (Bass et al.)
# Sequence of IR (Homo sapiens, UniProt P06213) (P06213 28-758 limits assumed): as the sequence (P06213 28-758 limits assumed, stated change not applied) above
# Sequence of IR (Homo sapiens, UniProt P06213) (P06213 763-1382 limits assumed): as the sequence (P06213 763-1382 limits assumed) above
# Source text: Table printed on a drawing sheet, FIG. 5B
# The patent's description of the figure: FIG. 5A: Summary of specific representative amino acid sequences from Formulas 1, 4, 6, and 10 (SEQ ID NOS:1155-1180).
# FIG. 5B: Summary of specific representative amino acid sequences from Formulas 1, 4, 6, and 10 (SEQ ID NOS:1181-1220).
# First copying reader's note: The scan is skewed, so values in the right-hand columns sit slightly higher than their clone names, and their rows were assigned by following the ruled lines.
# Where the first naming reader finds the target: head: IR-Kd
# Sequence of His-tagged soluble recombinant human IGF-IR (srhIGF-1R-his) (P08069 31-736 limits assumed): as the sequence (P08069 31-736 limits assumed) above
# Sequence of His-tagged soluble recombinant human IGF-IR (srhIGF-1R-his) (P08069 741-935 limits assumed): as the sequence (P08069 741-935 limits assumed) above
compound,measurement,setting,value
CC(C)C[C@@H]1NC(=O)[C@@H](NC(=O)[C@H](CO)NC(=O)[C@H](Cc2ccc(O)cc2)NC(=O)[C@H](Cc2ccccc2)NC(=O)[C@@H](N)CO)CSSC[C@@H](C(=O)N[C@@H](CCCNC(=N)N)C(=O)N[C@@H](CCCCN)C(=O)N[C@@H](CCCCN)C(=O)O)NC(=O)CNC(=O)[C@H](CC(=O)O)NC(=O)[C@H](Cc2c[nH]c3ccccc23)NC(=O)[C@H](CCC(N)=O)NC(=O)CNC(=O)[C@H](CCCNC(=N)N)NC(=O)[C@H](CO)NC(=O)[C@H](CCCCN)NC(=O)[C@H](CCC(=O)O)NC(=O)[C@H](C)NC(=O)[C@@H]2CCCN2C(=O)CNC(=O)[C@H](CC(N)=O)NC(=O)[C@H](C(C)C)NC(=O)[C@H](CC(C)C)NC(=O)[C@H](CO)NC(=O)[C@H](CCC(=O)O)NC1=O [RP33-IGF with KK],IC50,[1],9 nM
same,IC50,MCF-7 cells; MCF-7,100 nM
same,Activ.,MCF-7 cells; proliferation assays in the presence of IGF-1 using MCF-7 and MiaPaCa cells,Antag.
same,IC50,MiaPaCa cells,700 nM
"437 (NNNNLGIEGRISEFIEGRAQPAMAFHENFYDWFVRQVSAAAGAPVPYPDPLEPRAA; also: MBP fusion, junction not given here) [Peptide 437]",Act. (activity),IR [2],N—N
FHENFYDWFVRQVSKK [Peptide H2C],"Hill, sIR-Fc, b-RP9, FRET",[3],−1.03
same,effect on the rate of dissociation of b-20E2 from IGF-1R,IGF-1R [4],dissociation rates of b-20E2 were similar
same,"Hill, sIR-Fc, b-S175, FRET",[5],−0.82
same,"Hill, sIR, FITC-RP9, FP",[6],−0.49
same,stimulation of autophosphorylation of IR,[7],stimulate autophosphorylation
same,"binding to IGF-1R compared with IR, in words",IGF-1R [8],lower binding ratios for IGF-1R over IR
same,"potency / affinity at IR, in words","[9]; FP with FITC-RP9, summary of Table 22",slightly less potent
same,"Hill, sIR-Fc, FITC-RP9, FP","[9]; Hill slope, target sIR-Fc, label FITC-RP9, fluorescence polarization",−0.27
same,FFC,[10],+
AFYDWFAKK [Peptide S167],Kd,IR [11],> 20000 nM
